Test results published in PubChem BioAssay AID330 (DTP/NCI, 2004).
Where “and” joins values, the source holds several entries; their conditions need not be identical. Identical values can stand only once. Inconclusive results and toxic doses are left out.

Tested on: P388 leukemia ip, CD2F1 mice, survival T/C
Assay: NCI In Vivo Anticancer Drug Screen. Data for tumor model P388 Leukemia (intraperitoneal) in CD2F1 (CDF1) mice
Settings: endpoint: median survival time, higher = longer survival
How it was run: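 Mice carrying the transplanted tumor received test compound or vehicle. Survival was recorded in each group, and the value is the treated-group measurement divided by that of the vehicle-treated control group.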

[1] = dose: 60.0 mg/kg/injection, schedule: Q01DX005 (ip), vehicle: saline with Tween-80
[2] = dose: 120.0 mg/kg/injection, schedule: Q01DX005 (ip), vehicle: saline with Tween-80
[3] = dose: 240.0 mg/kg/injection, schedule: Q01DX005 (ip), vehicle: saline with Tween-80
[4] = dose: 100.0 mg/kg/injection, schedule: Q01DX005 (ip), vehicle: saline with Tween-80
[5] = dose: 50.0 mg/kg/injection, schedule: Q01DX009 (ip), vehicle: saline with Tween-80
[6] = dose: 100.0 mg/kg/injection, schedule: Q01DX009 (ip), vehicle: saline with Tween-80
[7] = dose: 200.0 mg/kg/injection, schedule: Q01DX009 (ip), vehicle: saline with Tween-80
[8] = dose: 100.0 mg/kg/injection, schedule: Q01DX001 (ip), vehicle: saline
[9] = dose: 25.0 mg/kg/injection, schedule: Q01DX009 (ip), vehicle: saline
[10] = dose: 50.0 mg/kg/injection, schedule: Q01DX009 (ip), vehicle: saline
[11] = dose: 100.0 mg/kg/injection, schedule: Q01DX009 (ip), vehicle: saline
[12] = dose: 50.0 mg/kg/injection, schedule: Q01DX005 (ip), vehicle: saline with Tween-80
[13] = dose: 200.0 mg/kg/injection, schedule: Q01DX005 (ip), vehicle: saline with Tween-80

CN=C(N)NN=C(c1ccc(Br)cc1)c1ccc(Br)cc1
T/C (dose: 25.0 mg/kg/injection, schedule: Q04DX002 (ip), vehicle: saline with Tween-80): 100 % of control and 106 % of control
T/C (dose: 50.0 mg/kg/injection, schedule: Q04DX002 (ip), vehicle: saline with Tween-80): 103 % of control and 124 % of control

CNc1[nH]c(=O)ncc1N
T/C (dose: 25.0 mg/kg/injection, schedule: Q01DX005 (ip), vehicle: Klucel (hydroxypropylcellulose) (HPC)): 98 % of control
T/C (dose: 50.0 mg/kg/injection, schedule: Q01DX005 (ip), vehicle: Klucel (hydroxypropylcellulose) (HPC)): 98 % of control
T/C (dose: 100.0 mg/kg/injection, schedule: Q01DX005 (ip), vehicle: Klucel (hydroxypropylcellulose) (HPC)): 98 % of control

NCCc1ccncc1
T/C (dose: 60.0 mg/kg/injection, schedule: Q01DX005 (ip), vehicle: suspension in saline): 98 % of control
T/C (dose: 120.0 mg/kg/injection, schedule: Q01DX005 (ip), vehicle: suspension in saline): 94 % of control

O=C1c2ccccc2C(=O)c2c1c([N+](=O)[O-])c1c(c2[N+](=O)[O-])OCO1
T/C [1]: 86 % of control
T/C [2]: 86 % of control
T/C [3]: 96 % of control

C=CCn1c2c(c3ccccc3c1=O)C(=O)c1ccccc1-2
T/C (dose: 6.25 mg/kg/injection, schedule: Q01DX005 (ip), vehicle: saline with Tween-80): 97 % of control
T/C (dose: 12.5 mg/kg/injection, schedule: Q01DX005 (ip), vehicle: saline with Tween-80): 99 % of control
T/C (dose: 25.0 mg/kg/injection, schedule: Q01DX005 (ip), vehicle: saline with Tween-80): 99 % of control
T/C [4]: 87 % of control

Cc1ccc2c(c1)SP(c1ccccc1)S2 (stereo unspecified)
T/C (dose: 100.0 mg/kg/injection, schedule: Q04DX002 (ip), vehicle: saline with Tween-80): 103 % of control
T/C (dose: 200.0 mg/kg/injection, schedule: Q04DX002 (ip), vehicle: saline with Tween-80): 104 % of control
T/C (dose: 400.0 mg/kg/injection, schedule: Q04DX002 (ip), vehicle: saline with Tween-80): 112 % of control

Cc1ccc(NC(=O)Oc2ccc(Cl)cc2)c([N+](=O)[O-])c1
T/C [5]: 109 % of control
T/C [6]: 100 % of control
T/C [7]: 105 % of control

COc1cc2ccnc(C=O)c2cc1OC
T/C (dose: 25.0 mg/kg/injection, schedule: Q01DX009 (ip), vehicle: saline with Tween-80): 110 % of control
T/C [5]: 110 % of control
T/C [6]: 107 % of control

COC(=O)c1ccnc(C(=O)OC)c1
T/C (dose: 50.0 mg/kg/injection, schedule: Q01DX001 (ip), vehicle: saline): 86 % of control
T/C [8]: 95 % of control
T/C (dose: 200.0 mg/kg/injection, schedule: Q01DX001 (ip), vehicle: saline): 100 % of control

Fc1cccc(NC(=S)SCc2ccc(Cl)cc2)c1
T/C [9]: 102 % of control
T/C [10]: 105 % of control
T/C [11]: 105 % of control
T/C (dose: 100.0 mg/kg/injection, schedule: Q01DX009 (ip), vehicle: suspension in saline): 103 % of control

CCOC(=O)c1cnc2cc(C(F)(F)F)ccc2c1N=[N+]=[N-]
T/C [1]: 99 % of control
T/C [2]: 96 % of control
T/C [3]: 96 % of control

O=C(O)c1cc2ccccc2c2c1C(=O)c1ccccc1-2
T/C [5]: 90 % of control
T/C [6]: 95 % of control
T/C [7]: 91 % of control

CCCCCCCCCCCCCCCC(CCCC)CCCCCC (stereo unspecified)
T/C (dose: 50.0 mg/kg/injection, schedule: Q01DX001 (ip), vehicle: saline sonified): 100 % of control
T/C (dose: 100.0 mg/kg/injection, schedule: Q01DX001 (ip), vehicle: saline sonified): 100 % of control
T/C (dose: 200.0 mg/kg/injection, schedule: Q01DX001 (ip), vehicle: saline sonified): 100 % of control

CC(=Nc1ccc(S(=O)(=O)c2ccc(N=C(C)N3CCCCC3)cc2)cc1)N1CCCCC1
T/C [12]: 100 % of control
T/C [4]: 97 % of control
T/C [13]: 88 % of control

SCc1ccccc1CS
T/C [5]: 110 % of control and 112 % of control and 114 % of control
T/C [6]: 110 % of control and 114 % of control and 121 % of control
T/C [7]: 107 % of control

CC(C)CC(=O)C(c1ccccc1)C(CC(C)C)C(=O)C1C(c2ccccc2)CC(=O)C(C(C)C)C1c1ccccc1 (stereo unspecified)
T/C [12]: 101 % of control
T/C [4]: 92 % of control
T/C [13]: 87 % of control

O=S(=O)(O)C(O)c1cccc(Cl)c1 (stereo unspecified)
T/C (dose: 100.0 mg/kg/injection, schedule: Q04DX003 (ip), vehicle: saline): 100 % of control
T/C (dose: 200.0 mg/kg/injection, schedule: Q04DX003 (ip), vehicle: saline): 110 % of control
T/C (dose: 400.0 mg/kg/injection, schedule: Q04DX003 (ip), vehicle: saline): 103 % of control

O=c1n(CC2CO2)c(=O)n(CC2CO2)c(=O)n1CC1CO1 (stereo unspecified)
T/C (dose: 6.25 mg/kg/injection, schedule: Q01DX009 (ip), vehicle: suspension in saline): 203 % of control and 172 % of control
T/C (dose: 12.5 mg/kg/injection, schedule: Q01DX009 (ip), vehicle: saline): 165 % of control and 186 % of control
T/C (dose: 12.5 mg/kg/injection, schedule: Q01DX009 (ip), vehicle: suspension in saline): 197 % of control and 216 % of control
T/C (dose: 15.0 mg/kg/injection, schedule: Q01DX005 (ip), vehicle: saline with Tween-80): 200 % of control
T/C (dose: 15.0 mg/kg/injection, schedule: Q01DX005 (ip), vehicle: saline): 161 % of control
T/C (dose: 20.0 mg/kg/injection, schedule: Q01DX009 (ip), vehicle: saline): 313 % of control
T/C (dose: 20.0 mg/kg/injection, schedule: Q01DX009 (sc), vehicle: saline): 172 % of control and 220 % of control
T/C [9]: 167 % of control and 205 % of control
T/C (dose: 25.0 mg/kg/injection, schedule: Q01DX009 (ip), vehicle: suspension in saline): 226 % of control and 281 % of control
T/C (dose: 25.0 mg/kg/injection, schedule: Q01DX009 (sc), vehicle: saline): 157 % of control and 265 % of control
T/C (dose: 30.0 mg/kg/injection, schedule: Q01DX005 (ip), vehicle: saline): 192 % of control
T/C (dose: 30.0 mg/kg/injection, schedule: Q01DX009 (ip), vehicle: saline): 272 % of control and 290 % of control and 316 % of control
T/C (dose: 30.0 mg/kg/injection, schedule: Q01DX009 (sc), vehicle: saline): 161 % of control and 247 % of control
T/C (dose: 40.0 mg/kg/injection, schedule: Q01DX009 (sc), vehicle: saline): 277 % of control
T/C (dose: 40.0 mg/kg/injection, schedule: Q04DX003 (ip), vehicle: saline): 184 % of control and 188 % of control and 218 % of control
T/C [10]: 200 % of control [middle of 5 runs]
T/C (dose: 50.0 mg/kg/injection, schedule: Q01DX009 (ip), vehicle: suspension in saline): 100 % of control
T/C (dose: 50.0 mg/kg/injection, schedule: Q04DX003 (ip), vehicle: saline): 206 % of control and 217 % of control and 290 % of control
T/C (dose: 60.0 mg/kg/injection, schedule: Q01DX001 (ip), vehicle: other): 262 % of control and 271 % of control
T/C (dose: 60.0 mg/kg/injection, schedule: Q01DX001 (ip), vehicle: saline): 271 % of control
T/C (dose: 60.0 mg/kg/injection, schedule: Q01DX001 (ip), vehicle: water): 260 % of control
T/C (dose: 60.0 mg/kg/injection, schedule: Q04DX003 (ip), vehicle: saline): 233 % of control and 245 % of control and 300 % of control
T/C (dose: 70.0 mg/kg/injection, schedule: Q01DX001 (ip), vehicle: other): 231 % of control and 281 % of control
T/C (dose: 70.0 mg/kg/injection, schedule: Q01DX001 (ip), vehicle: saline): 274 % of control
T/C (dose: 70.0 mg/kg/injection, schedule: Q01DX001 (ip), vehicle: water): 184 % of control
T/C (dose: 80.0 mg/kg/injection, schedule: Q01DX001 (ip), vehicle: other): 291 % of control and 349 % of control
T/C (dose: 80.0 mg/kg/injection, schedule: Q01DX001 (ip), vehicle: saline): 291 % of control
T/C (dose: 80.0 mg/kg/injection, schedule: Q01DX001 (ip), vehicle: water): 223 % of control
T/C (dose: 90.0 mg/kg/injection, schedule: Q01DX001 (ip), vehicle: saline): 420 % of control
T/C [8]: 210 % of control
T/C [11]: 285 % of control and 156 % of control and 228 % of control
T/C (dose: 200.0 mg/kg/injection, schedule: Q01DX009 (ip), vehicle: saline): 107 % of control

CC1C2=C(CC(C)(C)CC2=O)OC2=C1C(=O)CC(C)(C)C2
T/C [5]: 103 % of control
T/C [6]: 104 % of control
T/C [7]: 99 % of control

CC1(C)CC(OP(=O)(N(CCCl)CCCl)N2CC2)CC(C)(C)N1O (stereo unspecified)
T/C (dose: 13.0 mg/kg/injection, schedule: Q01DX009 (ip), vehicle: saline + alcohol): 102 % of control
T/C (dose: 25.0 mg/kg/injection, schedule: Q01DX009 (ip), vehicle: saline + alcohol): 102 % of control
T/C (dose: 50.0 mg/kg/injection, schedule: Q01DX009 (ip), vehicle: saline + alcohol): 114 % of control

N#Cc1c(C(=O)NN)cc(-c2cccc3ccccc23)[nH]c1=O
T/C [12]: 107 % of control
T/C [4]: 103 % of control
